Measured values taken from patent publication US20030138430A1, “Pharmaceutical comprising an agent that blocks the cell cycle and an antibody” (priority 2002, published 2003).
Structures can show the parent of a compound that is named as a salt.

Columns and labels:
[1] = system: Ep-CAM antigen on HT-29 colon adenocarcinoma cells; experiment: Internalization of lutetium-177-labeled GW1208W95 (anti-Ep-CAM); type: cell-based, human; conditions: HT-29 cells pretreated with drug; 37° C
Method: Internalization of Lutetium-177-labeled GW1208W95 (anti-Ep-CAM) by Human Colon Adenocarcinoma Cells. Colon adenocarcinoma cells (HT-29) were plated in 6-well plates and cultured. Subconfluent cells were exposed to cytotoxic drugs for up to 24 hours. Cells were washed and cultured for another 2-5 days. The plates were put on ice (0° C.) for minimum of 60 minutes and lutetium-177-labeled coupled to 6,6″-bis {N,N,N″,N″-tetra(carboxymethyl)aminomethyl)-4′-(3-bromoacetamido-4-methoxyphenyl-2,2′:6,2″-terpyridine) at 0.5-1.0 mCi/mg was added at a final concentration of 6.7 nM. Cells were incubated at 0° C. for 3.5 hr. Following incubation at 0° C., the cells were washed with 2.5 mL of ice-cold phosphate-buffered saline with human serum albumin (1%) (PBS-HSA). Then 2.5 mL pre-warmed media was added and the labeled cells were incubated at 37° C. At the indicated time points, cells were washed twice with 2.5 mL PBS-HSA. Cells were incubated for 5 minutes at room temperature with 2.5 mL 0.1 M NaCl in 0.05 M glycine (pH 2.8) to detemine labeled antibody bound to the target surface antigen. The incubation was repeated and counts pooled. Internalized counts were determined by solubilization of the cell layer with 1.0 mL of 1 N NaOH. Samples were counted using a Packard CliniGamma 5000. Data was normalized to cell count for each well.
Colon adenocarcinoma cells (HT-29) in culture were pretreated with chemotherapeutic agents as described previously for the evaluation of cell cycle and cell surface antigen quantitation. […] Cells were pulse-labeled with ^177Lu-GW1208W95 (6.7 nM @ 0.5-1.0 mCi/mg protein) for a minimum of 60 minutes at 0° C. on ice to inhibit surface antigen internalization. After washing away of excess radiolabeled antibody fresh media was added, and the cells were incubated at 37° C. for time indicated. Surface-bound antibody was eluted with isotonic buffer and both acid-labile (surface-bound) and acid-stable (internalized) radioactivity were quantitated.

[2] = system: erbB2 receptor on MCF-7 and MDA-MB-468 breast adenocarcinoma cells; experiment: Quantitation of cell surface erbB2 presentation; type: cell-based; conditions: for cell surface erbB2 presentation: compared with untreated controls (Example 2); for cell surface presentation of erbB2 receptor: Example 3
Method: (§1) Populations of adenocarcinoma cells were evaluated for distribution in G0/G1, S and G2/M phases of the cell cycle as well as for erbB2/neu presentation. Cells were dissociated from the culture plates using Versene (Gibco) and resuspended in calcium- and magnesium-free phosphate-buffered saline containing bovine serum albumin and sodium azide. Exactly 2×10^5 cells were stained with R-Phycoerythrin-conjugated-anti-HER-2/neu murine IgG (Cat. 340552, Becton Dickinson) in buffer containing 100 μg/mL mouse IgG (Cat. 15381, Sigma). Cells were fixed with FACSLyse (Cat. 92-002, Becton Dickinson) followed by a short post-fix with ethanol at −20° C. Cellular DNA was stained with DAPI (Cat. D1306, Molecular Probes) in buffer containing RNase A (Sigma).
Sample data were collected on a FACStar^PLUS® flow cytometer (Becton Dickinson) equipped with a 488 nm argon ion laser in position 1 and a 350 nm argon ion laser in position 2. For each cell analyzed, data was collected on signal pulses from linear forward scatter height and width, linear area and width of DAPI fluorescence for DNA, and logarithmic fluorescence height of the HER-2/neu antibody probe. The resulting listmode files were processed using Winlist 3D© software (Verity Software House, Topsham, Me.). […] The remaining cells were analyzed for cell cycle position by manual gating and HER-2/neu surface antigen density. Using the bead standard system described in Example 2, values of mean fluorescence intensity for HER-2/neu and other antigens were converted to values of “Antibodies Bound per Cell” (ABC) during analysis.
Cells were exposed to Gemzar (gemcitabine (GMZ), Lilly, Indianapolis, Ind.) for 24 hours. […] Following drug exposure, cells were washed and cultured for another 2-5 days prior to analysis for antigen presentation and cell cycle status, except for those treated with BB-94. Cells were dissociated from the culture plates using Versene (Gibco) and resuspended in calcium- and magnesium-free phosphatebuffered saline containing bovine serum albumin and sodium azide. Exactly 2×10^5 cells were stained as described in Example 1. Antigen presentation was quantified against calibrated bead standards calibrated by the vendor for murine IgG binding capacity (Quantum Simply Cellular Bead, Cat. QSC-100, Sigma); calibration beads were stained with R-phycoerythrin-conjugated anti-HER-2/neu murine IgG. Plots of fluorescence intensity against bead IgG binding capacity were constructed, and molecules of IgG bound per cell was read from the fluorescence intensity of the stained cells.
Cells were exposed to interferons continuously for 2-5 days. […] Exactly 2×10^5 cells were stained as described in Example 1, and antigen expression was quantified as described in Example 2.

[3] = system: erbB2 receptor on NHBE and HMEC normal epithelial cells; experiment: Quantitation of cell surface erbB2 presentation on normal epithelial cells; type: cell-based, human; conditions: compared with untreated controls
Method: Cells were exposed to Gemzar (gemcitabine (GMZ), Lilly, Indianapolis, Ind.) or 5FU (Adrucil®, Pharmacia & Upjohn) for 24 hours. Cells were exposed to interferons continuously for 2-5 days. Following drug exposure, cells were washed and cultured for another 2-5 days prior to analysis for antigen presentation and cell cycle status, except for those treated with interferons. Cells were dissociated from the culture plates using a collagenase cocktail (1:1:1,Types I, II, and IV, 0.1% (wt/vol), Gibco) in calcium- and magnesium-free phosphate-buffered saline. Cells were stained and cytometric data was collected as described in Example 1, and antigen expression was quantified as described in Example 2.

[4] = system: HT-29 colon adenocarcinoma cells; experiment: Cell cycle analysis by flow cytometry (propidium iodide); type: cell-based, human; conditions: HT-29 cells; media control 6.3%
Method: (§2) FIG. 7. Cell Cycle Analysis and Quantitation of Antigen Expression. Populations of adenocarcinoma cells were evaluated for distribution in G0/G1, S, and G2/M phases of the cell cycle as well as Ep-CAM presentation on the cell surface. […] Cells were exposed to 5-fluorouracil (5-FU) for 24 hours, and to the interferons continuously for 2-5 days. Cells were washed and cultured for another 2 days prior to analysis for antigen presentation except for cells exposed to interferons. Cells were lightly trypsinized and mechanically detached from the culture flasks and resuspended in calcium- and magnesium-free phosphate-buffered saline containing bovine serum albumin and sodium azide. Exactly 2×10^5 cells were stained with FITC-323/A3 murine IgG antibody or FITC-murine IgG (control). Cells were fixed with cold paraformaldehyde, then permeabilized for DNA staining with Tween-20. Cellular DNA was stained with a propidium iodide buffer containing RNAse A. Listmode data were acquired using Lysis II software on a FACScan flow cytometer (Becton Dickinson Immunocytometry Systems) equipped with a 488 nm laser. Cell cycle analysis was done using CellFit software for SOBR modeling of the histograms (where possible, otherwise manual estimations were employed) on Cell-Fit. Ep-CAM antigen presentation was quantitated by comparison of the mean fluorescence intensity of fluorescein-conjugated 323/A3 bound to cultured cells with the fluorescence intensity of calibrated microbead standards and evaluated separately using histogram analysis in WinList (Verity Software House). Standard curves of calibration bead concentration versus fluorescence intensity were constructed in SoftMax Pro (Molecular Devices, Inc.), and fluorescence intensity of stained cells was used to calculate the number of antigen molecules per cell for the population.
(§3) Adenocarcinoma cells (HT-29) were exposed to Navelbine or Taxol or combinations of drugs as indicated in FIG. 7 and the cells were evaluated for cell surface Ep-CAM presentation in addition to cell cycle distribution. […]

[5] = system: Ep-CAM antigen on HT-29 colon adenocarcinoma cells; experiment: Quantitation of cell surface Ep-CAM antigen with FITC-323/A3; type: cell-based, human; conditions: HT-29 cells after drug exposure, vs media control
Method: as §2, §3

[6] = system: MCF-7 and MDA-MB-468 breast adenocarcinoma cells; experiment: Cell cycle analysis by flow cytometry (DAPI); type: cell-based; conditions: Example 3
Method: as §1, with “Cellular DNA was stained with DAPI (Cat. D1306, Molecular Probes) in buffer containing RNase A (Sigma).” left out
Sample data were collected on a FACStar^PLUS® flow cytometer (Becton Dickinson) equipped with a 488 nm argon ion laser in position 1 and a 350 nm argon ion laser in position 2. For each cell analyzed, data was collected on signal pulses from linear forward scatter height and width, linear area and width of DAPI fluorescence for DNA, and logarithmic fluorescence height of the HER-2/neu antibody probe. […] The remaining cells were analyzed for cell cycle position by manual gating and HER-2/neu surface antigen density. Using the bead standard system described in Example 2, values of mean fluorescence intensity for HER-2/neu and other antigens were converted to values of “Antibodies Bound per Cell” (ABC) during analysis. […]

[7] = system: BT-474 breast and NCI H322 lung adenocarcinoma cells; experiment: Cell cycle analysis by flow cytometry (DAPI), high erbB2 cell lines; type: cell-based; conditions: BT-474 and H322; BB-94 10 μM alone
Method: (§4) Cells were dissociated from the culture plates using Versene (Gibco) and resuspended in calcium- and magnesium-free phosphate-buffered saline containing bovine serum albumin and sodium azide. Exactly 2×10^5 cells were stained with R-Phycoerythrin-conjugated-anti-HER-2/neu murine IgG (Cat. 340552, Becton Dickinson) in buffer containing 100 μg/mL mouse IgG (Cat. 15381, Sigma). Cells were fixed with […]. 92-002, Becton Dickinson) followed by a short post-fix with ethanol at -20° C. Cellular DNA was stained with DAPI (Cat. D1306, Molecular Probes) in buffer containing RNase A (Sigma). […] For each cell analyzed, data was collected on signal pulses from linear forward scatter height and width, linear area and width of DAPI fluorescence for DNA, and logarithmic fluorescence height of the HER-2/neu antibody probe. […] The remaining cells were analyzed for cell cycle position by manual gating and HER-2/neu surface antigen density. Using the bead standard system described in Example 2, values of mean fluorescence intensity for HER-2/neu and other antigens were converted to values of “Antibodies Bound per Cell” (ABC) during analysis. […] Antigen presentation was quantified against calibrated bead standards calibrated by the vendor for murine IgG binding capacity (Quantum Simply Cellular Bead, Cat. QSC-100, Sigma); calibration beads were stained with R-phycoerythrin-conjugated anti-HER-2/neu murine IgG. […]

[8] = system: erbB2 receptor on BT-474 breast and NCI H322 lung adenocarcinoma cells; experiment: Quantitation of cell surface erbB2 presentation, high erbB2 cell lines; type: cell-based; conditions: BT-474 and H322
Method: as §4

[9] = system: HT-29 colon adenocarcinoma tumors; experiment: Targeting of 177Lu-labelled antibody to Ep-CAM-positive HT-29 xenografts; type: in vivo, mouse
Method: Human colon adenocarcinoma (HT-29) tumors were initiated by subcutaneous implantation into female CD-1 nude mice (Charles River). When the tumors reached 200-300 mg, animals were divided into groups of five. […] A control group was dosed with 5-fluorouracil (5-FU) intraperitoneally at 20 mg/kg on days 1 and 5. […] Blood, spleen, liver, lung, kidney, femur, and tumor were harvested on days 1, 3 and 5 post-antibody-dose for direct gamma counting (Packard).

[10] = system: PC-3 prostatic adenocarcinoma cells; conditions: PC-3 cells; Navelbine 30 nM alone or with cisplatin; GW3622W94; human PBMC effectors 50:1; 6 hours
Method: Ep-CAM Antigen Expression and ADCC of Prostatic Adenocarcinoma in Culture. Biological Effectiveness in vitro as Measured by Antibody-dependent Cellular Cytotoxicity. […] Target cells were cultured overnight with 100 μCi Na2^51CrO4 (Amersham) in media, and then washed 3 times with RPMI-1640 containing 2 mM L-glutamine, 50 μg/mL gentamicin, and 10% heat-inactivated FBS. […] Spontaneous lysis wells (CPMspontaneous) received media (no effectors) and total lysis wells (CPMTotal) received Triton-X-100. Cultures were incubated for 6 hours at 37° C./5% CO2, then supernatants were harvested using Skatron filter frames (Skatron Instruments, Sterling Va.). Radioactivity was counted in a gamma counter and the percentage specific release, corrected for spontaneous lysis, was calculated.

[11] = Navelbine tolerability in CD-1 nude mice; conditions: intravenous, days 1 and 5, CD-1 nude mice
Method: Human colon adenocarcinoma (HT-29) tumors were initiated by subcutaneous implantation into female CD-1 nude mice (Charles River). When the tumors reached 200-300 mg, animals were divided into groups of five. Navelbine was injected intravenously at a dosage of 28 mg/kg in vehicle (5% dextrose in distilled water) on days 1 and 5.

[12] = system: SK-BR-3, MCF-7 and BT-474 breast adenocarcinoma cell lines; type: cell-based
Method: Cells were exposed to Gemzar (gemcitabine (GMZ), Lilly, Indianapolis, Ind.) for 24 hours. […] Cells were exposed to interferons continuously for 2-5 days.

In the case of `CC(=O)O[C@H]1C(=O)[C@@]2(C)[C@H]([C@H](OC(=O)c3ccccc3)[C@]3(O)C[C@H](OC(=O)[C@H](O)[C@@H](NC(=O)c4ccccc4)c4ccccc4)C(C)=C1C3(C)C)[C@]1(OC(C)=O)CO[C@@H]1C[C@@H]2O` [Taxol, 5β, 20 epoxy-1,2α,4,7β,10β,13α-hexahydroxytax-11-en-9-one 4,10-diacetate 2-benzoate 13-ester with (2R, 3S)-N-benzoyl-3-phenylisoserine], the “internalization of the radiolabelled antibody 177Lu-GW1208W95” value (“internalization” below) [1] is reported as “significantly inhibited internalization”, the “cell surface erbB2 presentation” value [2] is reported as “significant increases” and the “cell surface erbB2 presentation” value [3] is reported as “no significant increases”.

In the case of interferon-alpha, the “cells in S and G2/M phases combined” value [4] is reported as 12%, the “cell surface Ep-CAM expression” value [5] is reported as “not significantly increased” and the cell cycle distribution [6] is reported as “not significantly different from media control cells”. The “cell surface presentation of erbB2 receptor” value [2] was “not significantly increased”.

In the case of interferon-gamma: interferon-gamma, the “cells in S and G2/M phases combined” value [4] is reported as 11.5%, the “cell surface Ep-CAM expression” value [5] is reported as “not significantly increased” and the cell cycle distribution [6] is reported as “not significantly different from media control cells”. The “cell surface presentation of erbB2 receptor” value [2] was “not significantly increased”.

With `O=c1[nH]cc(F)c(=O)[nH]1` [5-FU, 5-fluorouracil] the “cells in S and G2/M phases combined” value [4] was 7.9%, the “cell surface Ep-CAM expression” value [5] was “not significantly increased” and the “internalization” value [1] was “extensive internalization”.

With `CNC(=O)[C@H](Cc1ccccc1)NC(=O)[C@H](CC(C)C)[C@H](CSc1cccs1)C(=O)NO` [BB-94] the cell cycle distribution [7] was “did not affect cell cycle distribution” and the “cell surface erbB2 presentation” value [8] was “increase in erbB2 presentation”.

In the case of `CCC1=C[C@@H]2CN(C1)Cc1c([nH]c3ccccc13)[C@@](C(=O)OC)(c1cc3c(cc1OC)N(C)[C@H]1[C@@](O)(C(=O)OC)[C@H](OC(C)=O)[C@]4(CC)C=CCN5CC[C@]31[C@@H]54)C2` (relative stereo) [Navelbine, 3′, 4′-didehydro-4′-deoxy-C′-norvincaleukoblastine [R-(R*,R*)-2,3-dihydroxybutanedioate (1:2)(salt)]], the tumor regression ([9]; Navelbine 28 mg/kg i.v. days 1 and 5, HT-29 xenografts) is reported as “minimal tumor regression”, the “increase in tumor targeting of 177Lu-labelled antibody” value ([9]; Navelbine pretreatment 28 mg/kg i.v. days 1 and 5, relative to vehicle- or 5-FU-treated animals) is reported as 2 fold and the “internalization” value [1] is reported as “significantly inhibited internalization”. The “cell surface erbB2 presentation” value [2] was “significant increases”, the “cell surface erbB2 presentation” value [3] was “no significant increases” and the “ADCC lysis of antibody-coated tumor target cells after drug pre-treatment” value [10] was “improved”. It also gave an LD10 [11] of ~28 mg/kg.

For `Nc1ccn([C@@H]2O[C@H](CO)[C@@H](O)C2(F)F)c(=O)n1` [Gemzar, gemcitabine], the “cell surface erbB2 presentation” value [8] was “significant increases” and the “toxicity to cell lines based on the 18 s values” [12] was “toxic”.

B1: interferon-gamma: interferon-gamma (protein, UniProt P01579 24-161, looked up)
Interferon gamma: QDPYVKEAENLKKYFNAGHSDVADNGTLFLGILKNWKEESDRKIMQSQIVSFYFKLFKNFKDDQSIQKSVETIKEDMNVKFFNSNKKKRDDFEKLTNYSVTDLNVQRKAIHELIQVMAELSPAAKTGKRKRSQMLFRG
For B1, the “toxicity to cell lines based on the 18 s values” [12] was “toxic”.
